Laboratory results taken from ChEMBL document CHEMBL1143050, “QSAR study on permeability of hydrophobic compounds with artificial membranes” (Bioorg Med Chem, 2007).

Assay: Permeability coefficient through artificial membrane in presence of unstirred water layer by PAMPA
Conditions: not given

Compound | LogP app | Papp [×10⁻⁶ cm/s]
Cc1cc(=O)n(-c2ccccc2)n1C [ANTIPYRINE] | -5.54 | –
CCOC(=O)c1ccccc1C(=O)OCC [DIETHYL PHTHALATE] | -4.82 | 15.1
Nc1cccc([N+](=O)[O-])c1 [3-NITROANILINE] | -4.67 | 21.6
O=C(O)c1ccccc1Nc1ccccc1 [FENAMIC ACID] | -4.86 | 13.8
CC(=O)Nc1ccc(O)cc1 [ACETAMINOPHEN] | -6.04 | –
Cc1ccccc1O [ORTHOCRESOL] | -4.28 | 52.1
Oc1ccccc1 [PHENOL] | -4.33 | 47
O=C(O)CCc1c[nH]c2ccccc12 [INDOLYLPROPIONIC ACID] | -5.68 | –
Nc1ccccc1 [ANILINE] | -4.12 | 75.9
Nc1ccccc1[N+](=O)[O-] [2-NITROANILINE] | -4.54 | 28.6
N#Cc1ccc(O)cc1 [4-CYANOPHENOL] | -4.77 | 17
COP1(=S)OCc2ccccc2O1 (stereo unspecified) [SALITHION] | -5.03 | 9.39
Oc1ccc(Cl)cc1Cl [2,4-DICHLOROPHENOL] | -4.93 | 11.9
Nc1ccccc1Cl | -4.48 | 33.1
CCC(C)c1ccccc1OC(=O)NC (stereo unspecified) [FENOBUCARB] | -4.91 | 12.4
CC(C)(C)N(NC(=O)c1ccc(Cl)cc1)C(=O)c1ccccc1 [HALOFENOZIDE] | -4.76 | 17.2
Oc1ccccc1Cl [2-CHLOROPHENOL] | -4.3 | 50
Cn1c(=O)c2[nH]cnc2n(C)c1=O.O [THEOPHYLLINE] | -5.31 | –
Cc1ccc(O)c(C)c1 | -4.61 | 24.3
O=[N+]([O-])c1ccccc1O [NITROPHENOLATE] | -4.24 | 57
O=C(O)Cc1c[nH]c2ccccc12 [INDOLE-3-ACETIC ACID] | -6.4 | –
O=[N+]([O-])c1cccc(O)c1 [3-NITRO-PHENOL] | -4.77 | 17.1
CCN(CC)C(=O)SCc1ccc(Cl)cc1 [THIOBENCARB] | -4.69 | 20.6
Nc1cccc(Cl)c1 [3-CHLOROANILINE] | -4.44 | 36.7
O=C(O)c1c[nH]c2ccccc12 | -6.1 | –
CC(=O)Nc1ccc(OCC(O)CNC(C)C)cc1 (stereo unspecified) [PRACTOLOL] | -5.98 | –
C[C@]12C[C@H](O)[C@H]3[C@@H](CCC4=CC(=O)CC[C@@]43C)[C@@H]1CC[C@@H]2C(=O)CO [CORTICOSTERONE] | -4.77 | –

Assay: Permeability coefficient through artificial membrane in presence of stirred water layer
Conditions: PAMPA

Compound | Papp [×10⁻⁶ cm/s] | LogP app
Nc1cccc([N+](=O)[O-])c1 [3-NITROANILINE] | 196 | –
O=C(O)c1ccccc1Nc1ccccc1 [FENAMIC ACID] | 24.3 | –
CC(=O)Nc1ccc(O)cc1 [ACETAMINOPHEN] | 2.22 | –
Cc1ccccc1O [ORTHOCRESOL] | 295 | –
Oc1ccccc1 [PHENOL] | – | -3.83
Nc1ccccc1 [ANILINE] | 306 | –
Nc1ccccc1[N+](=O)[O-] [2-NITROANILINE] | 229 | –
N#Cc1ccc(O)cc1 [4-CYANOPHENOL] | 22.3 | –
COP1(=S)OCc2ccccc2O1 (stereo unspecified) [SALITHION] | 43.9 | –
Oc1ccc(Cl)cc1Cl [2,4-DICHLOROPHENOL] | 127 | –
Nc1ccccc1Cl | 246 | –
CCC(C)c1ccccc1OC(=O)NC (stereo unspecified) [FENOBUCARB] | 131 | –
Oc1ccccc1Cl [2-CHLOROPHENOL] | 15.2 | –
Cc1ccc(O)c(C)c1 | 263 | –
O=[N+]([O-])c1ccccc1O [NITROPHENOLATE] | 216 | –
O=[N+]([O-])c1cccc(O)c1 [3-NITRO-PHENOL] | 69.4 | –
CCN(CC)C(=O)SCc1ccc(Cl)cc1 [THIOBENCARB] | 92.9 | –
Nc1cccc(Cl)c1 [3-CHLOROANILINE] | 261 | –
CC(=O)Nc1ccc(OCC(O)CNC(C)C)cc1 (stereo unspecified) [PRACTOLOL] | 0.37 | –
C[C@]12C[C@H](O)[C@H]3[C@@H](CCC4=CC(=O)CC[C@@]43C)[C@@H]1CC[C@@H]2C(=O)CO [CORTICOSTERONE] | 34.2 | –
O=C(N[C@H](CO)[C@H](O)c1ccc([N+](=O)[O-])cc1)C(Cl)Cl [CHLORAMPHENICOL] | 5.75 | –

Same assay, conditions: artificial membrane

Compound | LogP app
Nc1cccc([N+](=O)[O-])c1 [3-NITROANILINE] | -3.7
O=C(O)c1ccccc1Nc1ccccc1 [FENAMIC ACID] | -4.61
CC(=O)Nc1ccc(O)cc1 [ACETAMINOPHEN] | -5.65
Cc1ccccc1O [ORTHOCRESOL] | -3.53
Nc1ccccc1 [ANILINE] | -3.51
Nc1ccccc1[N+](=O)[O-] [2-NITROANILINE] | -3.64
N#Cc1ccc(O)cc1 [4-CYANOPHENOL] | -4.65
COP1(=S)OCc2ccccc2O1 (stereo unspecified) [SALITHION] | -4.36
Oc1ccc(Cl)cc1Cl [2,4-DICHLOROPHENOL] | -3.9
Nc1ccccc1Cl | -3.63
CCC(C)c1ccccc1OC(=O)NC (stereo unspecified) [FENOBUCARB] | -3.88
Oc1ccccc1Cl [2-CHLOROPHENOL] | -4.82
Cc1ccc(O)c(C)c1 | -3.58
O=[N+]([O-])c1ccccc1O [NITROPHENOLATE] | -3.36
O=[N+]([O-])c1cccc(O)c1 [3-NITRO-PHENOL] | -4.16
CCN(CC)C(=O)SCc1ccc(Cl)cc1 [THIOBENCARB] | -4.03
Nc1cccc(Cl)c1 [3-CHLOROANILINE] | -3.58
CC(=O)Nc1ccc(OCC(O)CNC(C)C)cc1 (stereo unspecified) [PRACTOLOL] | -6.43
C[C@]12C[C@H](O)[C@H]3[C@@H](CCC4=CC(=O)CC[C@@]43C)[C@@H]1CC[C@@H]2C(=O)CO [CORTICOSTERONE] | -4.47
